Measurements from patent publication US9694016B2 (Novartis AG, priority 2013, dated 2017).
Where two headings read alike, the source gives them in different places.

Molecular target: b-Raf (V600E) (Homo sapiens (Human), UniProt P15056, V600E)
Settings: read-out: b-Raf IC-50, AlphaScreen
[1] = 60 min pre-incubation, reaction 3 hours at room temperature
[2] = 60 min pre-incubation, 3 hours reaction

b-Raf (V600E), sequence (P15056 whole entry V600E): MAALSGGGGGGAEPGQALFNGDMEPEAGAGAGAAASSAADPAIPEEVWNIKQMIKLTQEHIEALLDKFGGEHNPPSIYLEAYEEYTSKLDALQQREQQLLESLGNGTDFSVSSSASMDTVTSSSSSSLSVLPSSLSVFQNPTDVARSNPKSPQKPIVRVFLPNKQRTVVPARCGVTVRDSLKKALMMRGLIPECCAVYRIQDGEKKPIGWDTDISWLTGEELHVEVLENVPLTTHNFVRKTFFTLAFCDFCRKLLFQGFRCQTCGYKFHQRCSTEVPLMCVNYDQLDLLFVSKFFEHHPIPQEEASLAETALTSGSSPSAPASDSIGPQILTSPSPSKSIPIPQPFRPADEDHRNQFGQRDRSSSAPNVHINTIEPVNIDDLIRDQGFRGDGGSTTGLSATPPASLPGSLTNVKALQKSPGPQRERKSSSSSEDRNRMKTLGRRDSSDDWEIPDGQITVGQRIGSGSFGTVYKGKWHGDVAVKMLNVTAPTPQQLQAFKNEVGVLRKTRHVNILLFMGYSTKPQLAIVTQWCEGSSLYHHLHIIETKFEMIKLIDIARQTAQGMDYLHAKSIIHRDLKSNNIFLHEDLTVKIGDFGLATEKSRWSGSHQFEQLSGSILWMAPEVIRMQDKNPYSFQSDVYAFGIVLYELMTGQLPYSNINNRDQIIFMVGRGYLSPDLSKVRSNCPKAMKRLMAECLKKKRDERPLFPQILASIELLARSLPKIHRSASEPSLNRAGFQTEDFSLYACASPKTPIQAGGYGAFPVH

| SMILES | IC50 [1] | IC50 [2] | IC50 (Table 2, 3 hours reaction) |
| --- | --- | --- | --- |
| Cc1ncc(NC(=O)c2cccc(C(F)(F)F)c2)cc1-c1cc(N2CCOCC2)c2nccn2c1 [Example 884, N-(6-methyl-5-(8-morpholinoimidazo[1,2-a]pyridin-6-yl)pyridin-3-yl)-3-(trifluoromethyl)benzamide] | 19.7 nM | – | – |
| Cc1ccc(NC(=O)c2cc(C(C)(C)C#N)ccn2)cc1-c1cnc(OC(C)C)c(N2CCOCC2)c1 [Example 948, 4-(2-cyanopropan-2-yl)-N-(3-(6-isopropoxy-5-morpholinopyridin-3-yl)-4-methylphenyl)picolinamide] | 2.33 nM | – | – |
| Cc1ccc(NC(=O)c2ccnc(C(C)(F)F)c2)cc1-c1cc(N2C3CCC2COC3)cc(=O)n1C [Example 691, N-(3-(4-(3-oxa-8-azabicyclo[3.2.1]octan-8-yl)-1-methyl-6-oxo-1,6-dihydropyridin-2-yl)-4-methylphenyl)-2-(1,1-difluoroethyl)isonicotinamide] | – | 23.8 nM | – |
| CCOc1ncc(-c2cc(NC(=O)c3ccnc(C(F)F)c3)cnc2C)cc1N1CCOCC1 [Example 247, 2-(difluoromethyl)-N-(6′-ethoxy-2-methyl-5′-morpholino-[3,3′-bipyridin]-5-yl)isonicotinamide] | – | – | 1.1 nM |
| CCOc1nnc(-c2cc(NC(=O)c3ccc(CNC)c(C(F)(F)F)c3)cnc2C)cc1N1CCOCC1 [Example 626, N-(5-(6-ethoxy-5-morpholinopyridazin-3-yl)-6-methylpyridin-3-yl)-4-((methylamino)methyl)-3-(trifluoromethyl)benzamide] | – | 14 nM | – |
| CCn1cc(C(=O)Nc2ccc(C)c(-c3cc(N4CCOCC4)c(=O)n(C)c3)c2)c(C)n1 [Example 365, 1-ethyl-3-methyl-N-(4-methyl-3-(1-methyl-5-morpholino-6-oxo-1,6-dihydropyridin-3-yl)phenyl)-1H-pyrazole-4-carboxamide] | – | – | 85.9 nM |
| Cc1ccc(NC(=O)c2ccnc(C3CC3)c2)cc1-c1cc(N2CCOCC2)nc(N2CC(O)C2)c1 [Example 1068, 2-cyclopropyl-N-(3-(2-(3-hydroxyazetidin-1-yl)-6-morpholinopyridin-4-yl)-4-methylphenyl)isonicotinamide] | 0.72 nM | – | – |
| Cc1ncc(NC(=O)c2ccnc(C(C)(F)F)c2)cc1-c1cc(N2CCOC[C@H]2C)n(C)c(=O)c1 [Example 524, (R)-2-(1,1-difluoroethyl)-N-(1′,2-dimethyl-6′-(3-methylmorpholino)-2′-oxo-1′,2′-dihydro-[3,4′-bipyridin]-5-yl)isonicotinamide] | – | 41.2 nM | – |
| Cc1ccc(NC(=O)c2cc(C(F)(F)F)ccn2)cc1-c1cc(N2CCOCC2)c(S(C)(=O)=O)nn1 [Example 933, N-(4-methyl-3-(6-(methylsulfonyl)-5-morpholinopyridazin-3-yl)phenyl)-4-(trifluoromethyl)picolinamide] | 0.78 nM | – | – |
| Cc1ncc(NC(=O)c2ccnc(C(C)(F)F)c2)cc1-c1cc(N2CCOCC2)c(OC(C)C)nn1 [Example 912, 2-(1,1-difluoroethyl)-N-(5-(6-isopropoxy-5-morpholinopyridazin-3-yl)-6-methylpyridin-3-yl)isonicotinamide] | 2.25 nM | – | – |
| CCn1c(N2CCOCC2)cc(-c2cc(NC(=O)c3ccnc(C(F)(F)CC)c3)ccc2C)cc1=O [Example 520, 2-(1,1-difluoropropyl)-N-(3-(1-ethyl-6-morpholino-2-oxo-1,2-dihydropyridin-4-yl)-4-methylphenyl)isonicotinamide] | – | 2.1 nM | – |
| Cc1ccc(NC(=O)c2cc(C(C)(F)F)ccn2)cc1-c1cc(N2CCOCC2)c(=O)n(C)c1 [Example 905, 4-(1,1-difluoroethyl)-N-(4-methyl-3-(1-methyl-5-morpholino-6-oxo-1,6-dihydropyridin-3-yl)phenyl)picolinamide] | 2.33 nM | – | – |
| CCOc1nnc(-c2cc(NC(=O)c3ccnc(C(C)(C)F)c3)cnc2C)cc1N1CCOCC1 [Example 610, N-(5-(6-ethoxy-5-morpholinopyridazin-3-yl)-6-methylpyridin-3-yl)-2-(2-fluoropropan-2-yl)isonicotinamide] | – | 4.5 nM | – |
| Cc1ncc(NC(=O)c2cc(C(C)(C)C#N)ccn2)cc1-c1cnc(OC(F)F)c(N2CCOCC2)c1 [Example 981, 4-(2-cyanopropan-2-yl)-N-(6′-(difluoromethoxy)-2-methyl-5′-morpholino-[3,3′-bipyridin]-5-yl)picolinamide] | 7.65 nM | – | – |
| Cc1ncc(NC(=O)c2cc(C(F)(F)F)ccn2)cc1-c1cc(N2CCOCC2)n2nccc2n1 [Example 810, N-(6-methyl-5-(7-morpholinopyrazolo[1,5-a]pyrimidin-5-yl)pyridin-3-yl)-4-(trifluoromethyl)picolinamide] | – | 1.4 nM | – |
| COc1ncc(-c2cc(NC(=O)c3ccnc(C(C)C)c3)cnc2C)cc1N1CCOCC1 [Example 323, 2-isopropyl-N-(6′-methoxy-2-methyl-5′-morpholino-[3,3′-bipyridin]-5-yl)isonicotinamide] | – | – | 12.9 nM |
| Cc1ncc(NC(=O)c2ccc(F)c(OC(C)C)c2)cc1-c1cc(N2CCOCC2)c(=O)n(C)c1 [Example 396, N-(1′,2-dimethyl-5′-morpholino-6′-oxo-1′,6′-dihydro-[3,3′-bipyridin]-5-yl)-4-fluoro-3-isopropoxybenzamide] | – | – | 10.8 nM |

| SMILES | IC50 [1] | IC50 [2] | IC50 (Table 2, 3 hours reaction) |
| --- | --- | --- | --- |
| Cc1ccc(NC(=O)c2ccnc(C(C)(C)C#N)c2)cc1-c1cc(N2CCOCC2)nc(NC2CNC2)n1 [Example 786, N-(3-(2-(azetidin-3-ylamino)-6-morpholinopyrimidin-4-yl)-4-methylphenyl)-2-(2-cyanopropan-2-yl)isonicotinamide] | – | 14.9 nM | – |
| Cc1nn(C(C)C)cc1C(=O)Nc1cnc(C)c(-c2cc(N3CCOCC3)c(=O)n(C)c2)c1 [Example 375, N-(1′,2-dimethyl-5′-morpholino-6′-oxo-1′,6′-dihydro-[3,3′-bipyridin]-5-yl)-1-isopropyl-3-methyl-1H-pyrazole-4-carboxamide] | – | – | 200 nM |
| CCOc1nc(-c2cc(NC(=O)c3ccnc(C(C)(C)C#N)c3)ccc2C)cc(N2CCOCC2)n1 [Example 764, 2-(2-cyanopropan-2-yl)-N-(3-(2-ethoxy-6-morpholinopyrimidin-4-yl)-4-methylphenyl)isonicotinamide] | – | 3.4 nM | – |
| Cc1ccc(NC(=O)c2ccnc(C(C)(C)C#N)c2)cc1-c1cc(N2CCOCC2)c(=O)n(C)n1 [Example 191, 2-(2-cyanopropan-2-yl)-N-(4-methyl-3-(1-methyl-5-morpholino-6-oxo-1,6-dihydropyridazin-3-yl)phenyl)isonicotinamide] | – | – | 5.4 nM |
| Cc1ccc(NC(=O)c2ccnc(C3CC3)c2)cc1-c1cnc(OCCO)c(N2CCOCC2)c1 [Example 999, 2-cyclopropyl-N-(3-(6-(2-hydroxyethoxy)-5-morpholinopyridin-3-yl)-4-methylphenyl)isonicotinamide] | 0.91 nM | – | – |
| CCC(F)(F)c1cc(C(=O)Nc2cnc(C)c(-c3cc(C4COCCO4)nc(N4CCOCC4)c3)c2)ccn1 (stereo not drawn) [Example 1168, N-(2′-(1,4-dioxan-2-yl)-2-methyl-6′-morpholino-[3,4′-bipyridin]-5-yl)-2-(1,1-difluoropropyl)isonicotinamide] | 4.56 nM | – | – |
| Cc1ncc(NC(=O)c2ccnc(C3(C#N)CC3)c2)cc1-c1cc(N2CCOCC2)n2nccc2n1 [Example 802, 2-(1-cyanocyclopropyl)-N-(6-methyl-5-(7-morpholinopyrazolo[1,5-a]pyrimidin-5-yl)pyridin-3-yl)isonicotinamide] | – | 3.1 nM | – |
| Cc1ccc(NC(=O)c2ccnc(C(C)(C)O)c2)cc1-c1cnc(OC2CCOCC2)c(N2CCOCC2)c1 [Example 277, 2-(2-hydroxypropan-2-yl)-N-(4-methyl-3-(5-morpholino-6-((tetrahydro-2H-pyran-4-yl)oxy)pyridin-3-yl)phenyl)isonicotinamide] | – | – | 1 nM |
| Cc1ccc(C(=O)Nc2ccccc2)cc1-c1cc(N2CCOCC2)c(=O)n(C)c1 [Example 429, 4-methyl-3-(1-methyl-5-morpholino-6-oxo-1,6-dihydropyridin-3-yl)-N-phenylbenzamide] | – | – | 33.7 nM |
| Cc1ccc(NC(=O)c2cccc(C(F)(F)F)c2)cc1-c1cc(NCC(O)C(F)(F)F)nc(N2CCOCC2)c1 (stereo not drawn) [Example 1063, N-(4-methyl-3-(2-morpholino-6-((3,3,3-trifluoro-2-hydroxypropyl)amino)pyridin-4-yl)phenyl)-3-(trifluoromethyl)benzamide] | 1.48 nM | – | – |
| Cc1ccc(NC(=O)c2ccnc(C(C)(F)F)c2)cc1-c1cc(N2CCOCC2)nc(N2CC(O)C2)c1 [Example 1078, 2-(1,1-difluoroethyl)-N-(3-(2-(3-hydroxyazetidin-1-yl)-6-morpholinopyridin-4-yl)-4-methylphenyl)isonicotinamide] | 0.67 nM | – | – |
| Cc1ccc(NC(=O)c2cnccn2)cc1-c1ccnc(N2CCOCC2)c1 [Example 70, N-(4-methyl-3-(2-morpholinopyridin-4-yl)phenyl)pyrazine-2-carboxamide] | – | – | 200 nM |
| Cc1ccc(NC(=O)c2ccnc(C(C)(C)C#N)c2)cc1-c1cc(N2CCOCC2)nc(NC(C)(C)CO)n1 [Example 751, 2-(2-cyanopropan-2-yl)-N-(3-(2-((1-hydroxy-2-methylpropan-2-yl)amino)-6-morpholinopyrimidin-4-yl)-4-methylphenyl)isonicotinamide] | – | 1.4 nM | – |
| Cc1ccc(NC(=O)c2cccc(OC(C)C)c2)cc1-c1cc(N2CCOCC2)c(=O)n(C)c1 [Example 345, 3-isopropoxy-N-(4-methyl-3-(1-methyl-5-morpholino-6-oxo-1,6-dihydropyridin-3-yl)phenyl)benzamide] | – | – | 1.6 nM |
| Cc1ncc(NC(=O)c2ccnc(C3CC3)c2)cc1-c1cc(NCCO)nc(N2CCOCC2)c1 [Example 1057, 2-cyclopropyl-N-(2′-((2-hydroxyethyl)amino)-2-methyl-6′-morpholino-[3,4′-bipyridin]-5-yl)isonicotinamide] | 4.12 nM | – | – |
| CCNc1nc(-c2cc(NC(=O)c3cccc(C(F)F)c3)cnc2C)cc(N2CCOCC2)n1 [Example 722, 3-(difluoromethyl)-N-(5-(2-(ethylamino)-6-morpholinopyrimidin-4-yl)-6-methylpyridin-3-yl)benzamide] | – | 1.6 nM | – |
